Source: the supplement of paper PMC12076712

How the values were obtained:
Test in all cases: pIC50, kinobeads binding competition
PRKCQ = PRKCQ (UniProt Q04759)
Procedure, shortened: (§1)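 Jurkat cells were exposed alive to nine compound concentrations (top 30 μM, 1:4 steps) or vehicle for 60 min at 37 °C and then lysed. In a second format, nine concentrations (top 30 μM, 1:5 steps) were incubated for 60 min at 4 °C with Jurkat lysate or with a 1:1:1:1 lysate mix of HEK293, K-562, HepG2 and placenta. Proteins captured on Kinobeads were digested and quantified by TMT10 LC-MS/MS. pIC50 values were derived from logistic dose-response fits (R drc package) of fold changes relative to vehicle, in biological duplicates.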

EIF2AK3 = target: T1, EIF2AK3 (UniProt Q9NZJ5); conditions: cell material: Lysate mix
T1 sequence (whole entry): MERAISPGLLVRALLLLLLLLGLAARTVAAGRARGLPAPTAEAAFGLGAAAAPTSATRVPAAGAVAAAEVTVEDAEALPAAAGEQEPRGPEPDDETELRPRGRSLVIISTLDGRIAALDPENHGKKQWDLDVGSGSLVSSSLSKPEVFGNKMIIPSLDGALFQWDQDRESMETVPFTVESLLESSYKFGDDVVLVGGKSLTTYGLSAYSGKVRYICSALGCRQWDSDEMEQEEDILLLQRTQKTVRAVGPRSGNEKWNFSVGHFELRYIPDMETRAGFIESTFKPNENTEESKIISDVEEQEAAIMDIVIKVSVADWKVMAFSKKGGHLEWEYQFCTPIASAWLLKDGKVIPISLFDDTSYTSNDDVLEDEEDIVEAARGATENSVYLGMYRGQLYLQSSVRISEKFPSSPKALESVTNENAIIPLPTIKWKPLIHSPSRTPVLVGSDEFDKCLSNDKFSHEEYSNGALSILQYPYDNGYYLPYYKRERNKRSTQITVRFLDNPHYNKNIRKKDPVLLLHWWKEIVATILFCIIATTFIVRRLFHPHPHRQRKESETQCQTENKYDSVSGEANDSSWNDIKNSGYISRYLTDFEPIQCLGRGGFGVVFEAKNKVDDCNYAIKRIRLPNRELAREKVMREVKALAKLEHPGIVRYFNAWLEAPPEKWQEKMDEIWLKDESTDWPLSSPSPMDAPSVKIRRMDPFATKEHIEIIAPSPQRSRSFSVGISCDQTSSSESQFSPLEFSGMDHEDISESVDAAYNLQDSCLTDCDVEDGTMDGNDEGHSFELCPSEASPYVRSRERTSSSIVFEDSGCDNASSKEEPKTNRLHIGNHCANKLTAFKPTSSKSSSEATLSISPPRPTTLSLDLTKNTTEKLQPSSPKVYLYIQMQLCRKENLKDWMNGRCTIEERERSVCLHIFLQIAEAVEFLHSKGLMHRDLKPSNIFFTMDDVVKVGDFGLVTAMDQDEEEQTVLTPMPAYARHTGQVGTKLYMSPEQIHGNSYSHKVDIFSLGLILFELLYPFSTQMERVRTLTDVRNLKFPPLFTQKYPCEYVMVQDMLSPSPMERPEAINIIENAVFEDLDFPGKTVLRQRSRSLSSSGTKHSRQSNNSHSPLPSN
Procedure, shortened: as §1

UniProt Q99759 = target: T2, UniProt Q99759
T2 sequence (whole entry): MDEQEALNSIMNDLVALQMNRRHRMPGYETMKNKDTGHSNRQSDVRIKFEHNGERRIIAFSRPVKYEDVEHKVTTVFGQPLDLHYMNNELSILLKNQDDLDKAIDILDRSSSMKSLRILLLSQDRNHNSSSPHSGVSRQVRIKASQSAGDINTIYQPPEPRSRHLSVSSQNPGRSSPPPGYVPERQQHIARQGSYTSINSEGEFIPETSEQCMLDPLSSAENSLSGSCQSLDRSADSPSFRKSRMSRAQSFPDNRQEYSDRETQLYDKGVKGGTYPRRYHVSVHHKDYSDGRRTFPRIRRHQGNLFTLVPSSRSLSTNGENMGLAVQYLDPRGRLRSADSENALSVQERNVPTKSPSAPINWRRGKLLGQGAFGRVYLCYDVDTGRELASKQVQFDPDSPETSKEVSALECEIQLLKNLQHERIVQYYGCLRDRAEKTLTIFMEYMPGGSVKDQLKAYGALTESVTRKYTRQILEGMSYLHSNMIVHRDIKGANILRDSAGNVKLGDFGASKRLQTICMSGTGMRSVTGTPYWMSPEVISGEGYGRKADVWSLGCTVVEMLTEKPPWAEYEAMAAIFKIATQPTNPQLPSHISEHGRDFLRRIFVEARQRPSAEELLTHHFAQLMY
Procedure, shortened: as §1

CLK1 = CLK1 (UniProt P49759)
Procedure, shortened: as §1

UniProt Q9Y2K2 = target: UniProt Q9Y2K2
UniProt Q9Y2K2, sequence (Q9Y2K2 whole entry, looked up): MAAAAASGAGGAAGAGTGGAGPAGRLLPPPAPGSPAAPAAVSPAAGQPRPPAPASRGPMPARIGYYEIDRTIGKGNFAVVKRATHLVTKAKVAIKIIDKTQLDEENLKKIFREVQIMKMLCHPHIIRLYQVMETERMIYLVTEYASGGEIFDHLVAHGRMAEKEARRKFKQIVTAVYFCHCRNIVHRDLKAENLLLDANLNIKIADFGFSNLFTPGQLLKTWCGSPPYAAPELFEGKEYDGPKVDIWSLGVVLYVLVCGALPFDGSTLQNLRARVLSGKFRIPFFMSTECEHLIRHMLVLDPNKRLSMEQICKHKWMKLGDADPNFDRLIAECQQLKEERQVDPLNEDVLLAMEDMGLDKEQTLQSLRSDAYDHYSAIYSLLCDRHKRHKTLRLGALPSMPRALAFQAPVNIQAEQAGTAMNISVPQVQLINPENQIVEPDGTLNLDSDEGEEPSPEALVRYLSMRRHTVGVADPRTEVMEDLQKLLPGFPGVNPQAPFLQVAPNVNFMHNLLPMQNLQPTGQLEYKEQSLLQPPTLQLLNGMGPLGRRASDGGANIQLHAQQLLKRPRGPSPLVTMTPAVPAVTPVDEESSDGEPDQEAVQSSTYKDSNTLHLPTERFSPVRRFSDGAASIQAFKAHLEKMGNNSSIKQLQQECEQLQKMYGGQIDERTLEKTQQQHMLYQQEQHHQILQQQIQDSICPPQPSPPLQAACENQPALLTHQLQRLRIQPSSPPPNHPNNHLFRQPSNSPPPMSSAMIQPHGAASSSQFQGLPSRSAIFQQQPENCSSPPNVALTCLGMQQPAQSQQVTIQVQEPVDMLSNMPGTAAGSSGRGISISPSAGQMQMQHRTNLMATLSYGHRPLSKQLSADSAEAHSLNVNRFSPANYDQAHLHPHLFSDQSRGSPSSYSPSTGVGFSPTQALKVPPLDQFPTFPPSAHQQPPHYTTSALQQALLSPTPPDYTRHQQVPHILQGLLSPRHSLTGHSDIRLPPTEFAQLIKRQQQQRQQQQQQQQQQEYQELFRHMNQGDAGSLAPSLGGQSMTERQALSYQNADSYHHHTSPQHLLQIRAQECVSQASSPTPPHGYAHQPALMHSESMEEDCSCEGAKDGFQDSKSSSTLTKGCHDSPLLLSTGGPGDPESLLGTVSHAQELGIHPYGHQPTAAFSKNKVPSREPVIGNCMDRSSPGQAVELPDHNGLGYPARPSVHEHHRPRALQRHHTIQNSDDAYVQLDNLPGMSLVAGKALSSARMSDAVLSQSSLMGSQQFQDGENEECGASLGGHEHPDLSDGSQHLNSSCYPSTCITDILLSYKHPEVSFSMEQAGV
Procedure, shortened: as §1

UniProt Q9NYL2 = target: UniProt Q9NYL2
UniProt Q9NYL2, sequence (Q9NYL2 whole entry, looked up): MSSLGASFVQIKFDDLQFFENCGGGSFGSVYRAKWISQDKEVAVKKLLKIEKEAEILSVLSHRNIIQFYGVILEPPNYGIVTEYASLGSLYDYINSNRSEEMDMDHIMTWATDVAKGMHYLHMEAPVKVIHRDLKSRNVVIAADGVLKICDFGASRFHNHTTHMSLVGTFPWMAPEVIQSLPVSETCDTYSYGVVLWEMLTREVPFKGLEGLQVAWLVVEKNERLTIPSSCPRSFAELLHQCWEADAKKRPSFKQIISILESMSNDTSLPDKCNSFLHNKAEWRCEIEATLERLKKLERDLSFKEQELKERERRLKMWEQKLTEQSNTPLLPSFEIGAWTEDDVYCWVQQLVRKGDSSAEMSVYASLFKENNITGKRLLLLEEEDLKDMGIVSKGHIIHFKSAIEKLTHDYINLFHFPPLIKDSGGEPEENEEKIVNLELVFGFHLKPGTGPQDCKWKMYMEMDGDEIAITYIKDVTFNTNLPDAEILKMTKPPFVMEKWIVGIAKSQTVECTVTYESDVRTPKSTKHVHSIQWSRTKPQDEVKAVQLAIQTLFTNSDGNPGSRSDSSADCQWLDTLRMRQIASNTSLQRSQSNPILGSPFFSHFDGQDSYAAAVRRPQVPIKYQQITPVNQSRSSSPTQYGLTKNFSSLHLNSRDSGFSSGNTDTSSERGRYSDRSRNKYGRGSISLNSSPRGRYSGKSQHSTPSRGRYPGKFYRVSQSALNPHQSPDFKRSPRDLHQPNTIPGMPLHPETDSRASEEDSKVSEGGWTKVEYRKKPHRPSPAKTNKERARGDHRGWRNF
Procedure, shortened: as §1

UniProt Q16584 = target: UniProt Q16584
Procedure, shortened: as §1

SLK = SLK (UniProt Q9H2G2)
Procedure, shortened: as §1

UniProt Q9BUB5 = target: UniProt Q9BUB5
UniProt Q9BUB5, sequence (Q9BUB5 whole entry, looked up): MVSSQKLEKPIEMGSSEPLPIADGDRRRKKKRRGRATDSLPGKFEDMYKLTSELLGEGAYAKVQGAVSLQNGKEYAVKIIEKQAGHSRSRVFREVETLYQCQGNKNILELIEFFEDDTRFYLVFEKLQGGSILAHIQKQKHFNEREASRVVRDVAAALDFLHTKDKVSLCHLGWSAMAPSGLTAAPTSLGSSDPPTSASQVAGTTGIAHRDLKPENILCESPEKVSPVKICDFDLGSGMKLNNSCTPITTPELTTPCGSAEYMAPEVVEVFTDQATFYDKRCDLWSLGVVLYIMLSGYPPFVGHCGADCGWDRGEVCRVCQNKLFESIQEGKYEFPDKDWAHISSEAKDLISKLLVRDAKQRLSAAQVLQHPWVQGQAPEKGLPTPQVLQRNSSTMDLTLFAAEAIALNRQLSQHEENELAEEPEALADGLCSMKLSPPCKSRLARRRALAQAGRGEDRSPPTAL
Procedure, shortened: as §1

MAPK11 = MAPK11 (UniProt Q15759)
MAPK11, sequence (Q15759 whole entry): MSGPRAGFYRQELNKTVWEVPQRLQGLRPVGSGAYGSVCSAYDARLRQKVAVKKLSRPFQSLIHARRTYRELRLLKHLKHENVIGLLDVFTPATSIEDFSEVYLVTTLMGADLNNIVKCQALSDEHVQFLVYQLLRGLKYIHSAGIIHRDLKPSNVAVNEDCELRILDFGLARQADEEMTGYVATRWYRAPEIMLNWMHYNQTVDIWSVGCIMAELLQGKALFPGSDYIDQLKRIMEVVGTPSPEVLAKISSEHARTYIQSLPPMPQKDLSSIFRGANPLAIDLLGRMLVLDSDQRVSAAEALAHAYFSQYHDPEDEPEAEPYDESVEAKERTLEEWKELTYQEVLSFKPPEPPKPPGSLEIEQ
Procedure, shortened: as §1

CAMKK1 = CAMKK1 (UniProt Q8N5S9)
CAMKK1, sequence (Q8N5S9 whole entry, looked up): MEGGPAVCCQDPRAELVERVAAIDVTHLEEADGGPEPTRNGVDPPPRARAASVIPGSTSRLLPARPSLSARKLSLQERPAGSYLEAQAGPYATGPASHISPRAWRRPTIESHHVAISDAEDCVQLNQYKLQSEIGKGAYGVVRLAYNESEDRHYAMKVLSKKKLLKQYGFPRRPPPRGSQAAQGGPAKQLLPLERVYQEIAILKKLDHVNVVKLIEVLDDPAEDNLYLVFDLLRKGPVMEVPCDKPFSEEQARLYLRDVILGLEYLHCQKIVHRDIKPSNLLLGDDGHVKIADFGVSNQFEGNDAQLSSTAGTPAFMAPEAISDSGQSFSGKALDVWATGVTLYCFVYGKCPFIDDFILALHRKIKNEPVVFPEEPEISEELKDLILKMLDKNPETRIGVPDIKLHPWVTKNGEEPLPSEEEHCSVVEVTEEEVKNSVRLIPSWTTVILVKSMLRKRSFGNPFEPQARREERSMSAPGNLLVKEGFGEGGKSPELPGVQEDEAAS
Procedure, shortened: as §1

STK35 = STK35 (UniProt Q8TDR2)
STK35, sequence (Q8TDR2 whole entry): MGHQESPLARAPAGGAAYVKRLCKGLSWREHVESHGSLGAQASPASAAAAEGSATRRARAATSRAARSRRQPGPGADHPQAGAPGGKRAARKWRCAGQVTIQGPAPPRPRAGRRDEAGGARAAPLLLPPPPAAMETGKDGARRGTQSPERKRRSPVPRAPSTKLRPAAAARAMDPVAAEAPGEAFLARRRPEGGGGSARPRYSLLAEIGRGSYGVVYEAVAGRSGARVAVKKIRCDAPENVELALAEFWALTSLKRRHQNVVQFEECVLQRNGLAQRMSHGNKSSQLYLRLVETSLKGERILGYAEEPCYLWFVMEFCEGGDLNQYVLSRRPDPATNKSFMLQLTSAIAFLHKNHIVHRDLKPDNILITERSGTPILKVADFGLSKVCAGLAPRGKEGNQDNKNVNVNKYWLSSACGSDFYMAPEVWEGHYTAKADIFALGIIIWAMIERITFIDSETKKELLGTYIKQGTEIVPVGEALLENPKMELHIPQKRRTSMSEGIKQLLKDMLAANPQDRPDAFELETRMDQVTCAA
Procedure, shortened: as §1

PHKG2 = target: T3, PHKG2 (UniProt P15735)
T3 sequence (whole entry): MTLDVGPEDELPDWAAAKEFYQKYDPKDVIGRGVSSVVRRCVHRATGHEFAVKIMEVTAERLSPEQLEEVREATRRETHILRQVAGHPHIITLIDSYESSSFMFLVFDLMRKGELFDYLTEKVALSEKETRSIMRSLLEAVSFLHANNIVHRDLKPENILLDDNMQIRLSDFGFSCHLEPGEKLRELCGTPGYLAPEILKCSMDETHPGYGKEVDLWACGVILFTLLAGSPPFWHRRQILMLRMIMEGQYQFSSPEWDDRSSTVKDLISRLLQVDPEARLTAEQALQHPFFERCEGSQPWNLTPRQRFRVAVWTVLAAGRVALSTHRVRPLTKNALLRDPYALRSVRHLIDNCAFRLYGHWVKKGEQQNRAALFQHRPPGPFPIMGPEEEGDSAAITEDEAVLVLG
Procedure, shortened: as §1

PRKCQ, sequence (Q04759 whole entry, looked up): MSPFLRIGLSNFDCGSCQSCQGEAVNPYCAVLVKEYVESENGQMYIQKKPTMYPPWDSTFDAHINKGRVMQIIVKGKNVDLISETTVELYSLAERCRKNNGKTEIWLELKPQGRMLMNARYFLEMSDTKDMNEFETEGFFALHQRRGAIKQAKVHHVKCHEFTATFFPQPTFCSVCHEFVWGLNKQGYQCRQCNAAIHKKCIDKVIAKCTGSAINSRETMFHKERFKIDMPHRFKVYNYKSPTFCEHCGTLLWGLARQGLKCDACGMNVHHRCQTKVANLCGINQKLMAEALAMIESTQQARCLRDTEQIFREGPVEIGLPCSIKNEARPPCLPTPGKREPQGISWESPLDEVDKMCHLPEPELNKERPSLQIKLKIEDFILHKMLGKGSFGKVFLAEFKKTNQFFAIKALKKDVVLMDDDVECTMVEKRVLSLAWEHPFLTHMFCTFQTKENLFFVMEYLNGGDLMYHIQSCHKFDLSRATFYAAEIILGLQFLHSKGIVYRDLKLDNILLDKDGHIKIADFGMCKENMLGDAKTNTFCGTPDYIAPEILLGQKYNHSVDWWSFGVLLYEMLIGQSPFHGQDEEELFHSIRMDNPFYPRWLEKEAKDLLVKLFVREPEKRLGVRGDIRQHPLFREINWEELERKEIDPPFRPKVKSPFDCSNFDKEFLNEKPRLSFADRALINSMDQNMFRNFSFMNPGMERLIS

SMILES	pIC50 (PRKCQ; cell material: Lysate mix)	pIC50 (EIF2AK3)	pIC50 (UniProt Q99759; cell material: Lysate mix)	pIC50 (CLK1; cell material: Lysate mix)	pIC50 (UniProt Q9Y2K2; cell material: Lysate mix)	pIC50 (UniProt Q9NYL2; cell material: Lysate mix)	pIC50 (UniProt Q16584; cell material: Lysate mix)	pIC50 (SLK; cell material: Lysate mix)	pIC50 (UniProt Q9BUB5; cell material: Lysate mix)	pIC50 (MAPK11; cell material: Lysate mix)	pIC50 (CAMKK1; cell material: Lysate mix)	pIC50 (STK35; cell material: Lysate mix)	pIC50 (PHKG2; cell material: Lysate mix)	pIC50 (UniProt Q9Y2K2; cell material: Jurkat cells)	pIC50 (MAPK11; cell material: Jurkat cells)	pIC50 (PRKCQ; cell material: Jurkat lysate)	pIC50 (UniProt Q99759; cell material: Jurkat cells)	pIC50 (UniProt Q99759; cell material: Jurkat lysate)	pIC50 (CLK1; cell material: Jurkat lysate)	pIC50 (UniProt Q9Y2K2; cell material: Jurkat lysate)	pIC50 (UniProt Q9NYL2; cell material: Jurkat cells)	pIC50 (UniProt Q9NYL2; cell material: Jurkat lysate)	pIC50 (UniProt Q16584; cell material: Jurkat cells)	pIC50 (UniProt Q16584; cell material: Jurkat lysate)	pIC50 (SLK; cell material: Jurkat cells)	pIC50 (SLK; cell material: Jurkat lysate)	pIC50 (UniProt Q9BUB5; cell material: Jurkat lysate)	pIC50 (MAPK11; cell material: Jurkat lysate)	pIC50 (CAMKK1; cell material: Jurkat cells)	pIC50 (CAMKK1; cell material: Jurkat lysate)	pIC50 (STK35; cell material: Jurkat cells)	pIC50 (STK35; cell material: Jurkat lysate)	pIC50 (PHKG2; cell material: Jurkat cells)	pIC50 (PHKG2; cell material: Jurkat lysate)	pIC50 (PRKCQ; cell material: Jurkat cells)	pIC50 (CLK1; cell material: Jurkat cells)	pIC50 (UniProt Q9BUB5; cell material: Jurkat cells)
Cc1cc(Nc2cc(C(=O)NCCNC(=O)OC3CC/C=C/CCC3)nc(N3CCN(Cc4ccc(S(=O)(=O)F)cc4)CC3)n2)n[nH]1 (stereo unspecified)	< 4.52	< 4.52	< 4.52	< 4.52	< 4.52	< 4.52	< 4.52	< 4.52	< 4.52	< 4.52	5.96	4.91	< 4.52																								
O=C(NCCNC(=O)c1cc(Nc2cc(C3CC3)[nH]n2)nc(N2CCN(Cc3ccc(S(=O)(=O)F)cc3)CC2)n1)OC1CC/C=C/CCC1 (stereo unspecified)	< 4.52	< 4.52	< 4.52	< 4.52	< 4.52	< 4.52	< 4.52	< 4.52	< 4.52	< 4.52	6.42	5.2	< 4.52	< 4.52	< 4.52	< 4.52	4.88	< 4.52	< 4.52	< 4.52	< 4.52	< 4.52	5.96	< 4.52	< 4.52	< 4.52	< 4.52	< 4.52	6.77	6.72	6.88	5.19	< 4.52	< 4.52			
C#CCNC(=O)c1cc(Nc2cc(C3CC3)[nH]n2)nc(N2CCN(Cc3ccc(S(=O)(=O)F)cc3)CC2)n1	< 4.52	< 4.52	5.16	5.66	< 4.52	< 4.52	5.64	< 4.52	< 4.52	< 4.52	7.04	6.96	< 4.52			< 4.52	5.8	4.72	5.38	< 4.52	5.56	< 4.52	6.26	5.22	5.46	< 4.52	< 4.52	< 4.52	6.26	6.86	6.96	6.1	5.16	< 4.52	5.42	6.11	5.31
CCNC(=O)c1cc(Nc2cc(C3CC3)[nH]n2)nc(N2CCN(Cc3ccc(S(=O)(=O)F)cc3)CC2)n1	< 4.52	< 4.52	5.08	5.44	< 4.52	< 4.52	5.29	< 4.52	< 4.52	< 4.52	6.68	6.58	< 4.52																								

Now from value to compound, other results behind:

pIC50 (PRKCQ; cell material: Lysate mix)	pIC50 (EIF2AK3)	pIC50 (UniProt Q99759; cell material: Lysate mix)	pIC50 (CLK1; cell material: Lysate mix)	pIC50 (UniProt Q9Y2K2; cell material: Lysate mix)	pIC50 (UniProt Q9NYL2; cell material: Lysate mix)	pIC50 (UniProt Q16584; cell material: Lysate mix)	pIC50 (SLK; cell material: Lysate mix)	pIC50 (UniProt Q9BUB5; cell material: Lysate mix)	pIC50 (MAPK11; cell material: Lysate mix)	pIC50 (CAMKK1; cell material: Lysate mix)	pIC50 (STK35; cell material: Lysate mix)	pIC50 (PHKG2; cell material: Lysate mix)	pIC50 (UniProt Q9Y2K2; cell material: Jurkat cells)	pIC50 (MAPK11; cell material: Jurkat cells)	SMILES	pIC50 (PRKCQ; cell material: Jurkat lysate)	pIC50 (UniProt Q99759; cell material: Jurkat cells)	pIC50 (UniProt Q99759; cell material: Jurkat lysate)	pIC50 (CLK1; cell material: Jurkat lysate)	pIC50 (UniProt Q9Y2K2; cell material: Jurkat lysate)	pIC50 (UniProt Q9NYL2; cell material: Jurkat cells)	pIC50 (UniProt Q9NYL2; cell material: Jurkat lysate)	pIC50 (UniProt Q16584; cell material: Jurkat cells)	pIC50 (UniProt Q16584; cell material: Jurkat lysate)	pIC50 (SLK; cell material: Jurkat cells)	pIC50 (SLK; cell material: Jurkat lysate)	pIC50 (UniProt Q9BUB5; cell material: Jurkat lysate)	pIC50 (MAPK11; cell material: Jurkat lysate)	pIC50 (CAMKK1; cell material: Jurkat cells)	pIC50 (CAMKK1; cell material: Jurkat lysate)	pIC50 (STK35; cell material: Jurkat cells)	pIC50 (STK35; cell material: Jurkat lysate)	pIC50 (PHKG2; cell material: Jurkat cells)	pIC50 (PHKG2; cell material: Jurkat lysate)	pIC50 (PRKCQ; cell material: Jurkat cells)	pIC50 (CLK1; cell material: Jurkat cells)	pIC50 (UniProt Q9BUB5; cell material: Jurkat cells)
< 4.52	< 4.52	< 4.52	< 4.52	< 4.52	< 4.52	< 4.52	< 4.52	< 4.52	< 4.52	5.98	6.01	< 4.52			C#CCNC(=O)c1cc(Nc2cc(C)[nH]n2)nc(N2CCN(Cc3ccc(S(=O)(=O)F)cc3)CC2)n1																						
< 4.52	< 4.52	< 4.52	< 4.52	< 4.52	< 4.52	< 4.52	< 4.52	< 4.52	< 4.52	5.97	6.51	< 4.52			CCNC(=O)c1cc(Nc2cc(C)[nH]n2)nc(N2CCN(Cc3ccc(S(=O)(=O)F)cc3)CC2)n1																						
